Molecules are shown by their SMILES.

One experiment has as its target T1, human GnRH receptor (Homo sapiens, UniProt P30968).
T1 construct: expressed in transfected cells; host or cells: HEK 293 (hGnRH-R/293, from Dr. Stuart Sealfon)
T1 sequence (P30968 1-328): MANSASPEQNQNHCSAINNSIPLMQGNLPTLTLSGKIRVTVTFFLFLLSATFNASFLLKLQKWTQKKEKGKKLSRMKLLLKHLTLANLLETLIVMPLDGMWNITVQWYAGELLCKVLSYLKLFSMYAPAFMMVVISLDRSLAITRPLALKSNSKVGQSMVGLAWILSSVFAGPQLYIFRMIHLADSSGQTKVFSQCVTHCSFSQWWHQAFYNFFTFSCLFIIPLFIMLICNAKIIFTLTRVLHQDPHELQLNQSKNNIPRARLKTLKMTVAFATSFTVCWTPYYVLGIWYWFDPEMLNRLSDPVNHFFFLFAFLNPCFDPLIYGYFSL
In words: Radioligand binding, 125I-GnRH-A displacement, membranes of HEK 293 cells with human GnRH receptor. As to conditions: 1 h, read-out: S%R 10 uM hGnRHR. In outline: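 Bound tracer was separated by filtration through polyethyleneimine-soaked GF/C filters and counted by liquid scintillation. IC50 from curve fitting; other species were tested under the same conditions.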
Regarding `COc1cccc(OC)c1NC(=O)c1ccc(Cc2cc3c(cc2C)C(C)(C)CCC3(C)C)o1` [Compound 389], the remaining activity at 10 µM is 3%.

Still in this experiment, the particulars now being: 1 h, substrate remaining; 1 uM compound; closer to zero = closer to 100% inhibition; read-out: S%R 1 uM hGnRHR.
In the case of `Cc1cc2c(cc1Cc1ccc(C(=O)NCc3cccnc3)o1)C(C)(C)CCC2(C)C` [Compound 400], the remaining activity at 1 µM was 28%.
With `Cc1cc2c(cc1Cc1ccc(C(=O)NCCOCCO)o1)C(C)(C)CCC2(C)C` [Compound 401], the remaining activity at 1 µM was found to be 32%.
`Cc1cc2c(cc1Cc1ccc(C(=O)NCc3ccccc3)o1)C(C)(C)CCC2(C)C` [Compound 402]: the remaining activity at 1 µM was determined as 18%.
Still for that read-out and setting: the value for `Cc1cc2c(cc1Cc1ccc(C(=O)NC(c3ccccc3)C(O)c3ccccc3)o1)C(C)(C)CCC2(C)C` (stereo not shown) [Compound 403] was 44%; that for `COc1ccccc1CNC(=O)c1ccc(Cc2cc3c(cc2C)C(C)(C)CCC3(C)C)o1` [Compound 404] was 13%; that for `Cc1cc2c(cc1Cc1ccc(C(=O)NCCc3ccccc3)o1)C(C)(C)CCC2(C)C` [Compound 405] was 40%.
With `Cc1cc2c(cc1Cc1ccc(C(=O)NCCNc3ccccc3)o1)C(C)(C)CCC2(C)C` [Compound 406], the remaining activity at 1 µM came to 30%.
On the same count and under the same terms, the same measure for `Cc1cc2c(cc1Cc1ccc(C(=O)NCc3ccco3)o1)C(C)(C)CCC2(C)C` [Compound 407]: 20%; for `Cc1cc2c(cc1Cc1ccc(C(=O)NCc3ccccc3F)o1)C(C)(C)CCC2(C)C` [Compound 408]: 16%.
As for `Cc1cc2c(cc1Cc1ccc(C(=O)NCc3ccc(Cl)cc3)o1)C(C)(C)CCC2(C)C` [Compound 409], the remaining activity at 1 µM amounted to 32%.
The same measure, in the same setting: the same measure for `COc1cccc(CNC(=O)c2ccc(Cc3cc4c(cc3C)C(C)(C)CCC4(C)C)o2)c1OC` [Compound 410]: 21%; for `COc1ccc(CNC(=O)c2ccc(Cc3cc4c(cc3C)C(C)(C)CCC4(C)C)o2)cc1OC` [Compound 411]: 28%.
On to `CCOc1ccccc1CNC(=O)c1ccc(Cc2cc3c(cc2C)C(C)(C)CCC3(C)C)o1` [Compound 412], for which the remaining activity at 1 µM was found to be 49%.
On the same count and under the same terms, the value for `Cc1ccccc1CNC(=O)c1ccc(Cc2cc3c(cc2C)C(C)(C)CCC3(C)C)o1` [Compound 413] was 16%.
As for `COc1ccc(CNC(=O)c2ccc(Cc3cc4c(cc3C)C(C)(C)CCC4(C)C)o2)cc1` [Compound 414], the remaining activity at 1 µM stood at 10%.
Same read-out and setting: the same measure for `Cc1cc2c(cc1Cc1ccc(C(=O)NCc3cccs3)o1)C(C)(C)CCC2(C)C` [Compound 415]: 18%; for `Cc1cc2c(cc1Cc1ccc(C(=O)NCc3cccc(Cl)c3Cl)o1)C(C)(C)CCC2(C)C` [Compound 416]: 34%; for `Cc1cc2c(cc1Cc1ccc(C(=O)NCc3ccccc3Cl)o1)C(C)(C)CCC2(C)C` [Compound 417]: 20%.
With `Cc1cc2c(cc1Cc1ccc(C(=O)NCCc3ccccc3Cl)o1)C(C)(C)CCC2(C)C` [Compound 418], the remaining activity at 1 µM is 42%.
Still for that read-out and setting: the same measure for `COc1ccccc1CCNC(=O)c1ccc(Cc2cc3c(cc2C)C(C)(C)CCC3(C)C)o1` [Compound 419]: 36%; for `Cc1cc2c(cc1Cc1ccc(C(=O)NC(CO)Cc3ccccc3)o1)C(C)(C)CCC2(C)C` (stereo not shown) [Compound 420]: 28%; for `Cc1cc2c(cc1Cc1ccc(C(=O)NCc3ccccc3Oc3ccccc3CO)o1)C(C)(C)CCC2(C)C` [Compound 421]: 48%.
With `Cc1cc2c(cc1Cc1ccc(C(=O)NCc3cccc4ccccc34)o1)C(C)(C)CCC2(C)C` [Compound 422], the remaining activity at 1 µM was 34%.
In the case of `Cc1cc2c(cc1Cc1ccc(C(=O)NC(C)CCc3ccccc3)o1)C(C)(C)CCC2(C)C` (stereo not shown) [Compound 423], the remaining activity at 1 µM amounted to 49%.
Consider `Cc1cc2c(cc1Cc1ccc(C(=O)NCCCN3CCCC3=O)o1)C(C)(C)CCC2(C)C` [Compound 424], for which the remaining activity at 1 µM was 31%.
`Cc1cc2c(cc1Cc1ccc(C(=O)NCc3ccc(Cl)cc3Cl)o1)C(C)(C)CCC2(C)C` [Compound 425]: the remaining activity at 1 µM turned out to be 42%.
Consider `Cc1cc2c(cc1Cc1ccc(C(=O)NCc3ccc(F)cc3)o1)C(C)(C)CCC2(C)C` [Compound 426], for which the remaining activity at 1 µM was determined as 30%.
For the compound `Cc1cc2c(cc1Cc1ccc(C(=O)NCc3cccc(Cl)c3)o1)C(C)(C)CCC2(C)C` [Compound 427], the remaining activity at 1 µM is 20%.
Turning to `Cc1cc2c(cc1Cc1ccc(C(=O)NC(C)c3ccccc3)o1)C(C)(C)CCC2(C)C` (stereo not shown) [Compound 428], the remaining activity at 1 µM worked out at 46%.
Turning to `COc1cccc(CCNC(=O)c2ccc(Cc3cc4c(cc3C)C(C)(C)CCC4(C)C)o2)c1OC` [Compound 429], the remaining activity at 1 µM is 40%.
For the compound `COc1cc(CCNC(=O)c2ccc(Cc3cc4c(cc3C)C(C)(C)CCC4(C)C)o2)cc(OC)c1` [Compound 430], the remaining activity at 1 µM was determined as 55%.
As for `Cc1cc2c(cc1Cc1ccc(C(=O)NC3CC3)o1)C(C)(C)CCC2(C)C` [Compound 431], the remaining activity at 1 µM is 47%.
Take `COCCNC(=O)c1ccc(Cc2cc3c(cc2C)C(C)(C)CCC3(C)C)o1` [Compound 432]: the remaining activity at 1 µM was found to be 42%.
Regarding `COc1ccc(CCNC(=O)c2ccc(Cc3cc4c(cc3C)C(C)(C)CCC4(C)C)o2)cc1` [Compound 433], the remaining activity at 1 µM came out at 54%.
Same read-out and setting: the value for `Cc1cccc(CNC(=O)c2ccc(Cc3cc4c(cc3C)C(C)(C)CCC4(C)C)o2)c1` [Compound 434] was 6%.
Same read-out and setting: the same measure for `Cc1ccc(CNC(=O)c2ccc(Cc3cc4c(cc3C)C(C)(C)CCC4(C)C)o2)cc1` [Compound 435]: 12%; for `Cc1cc2c(cc1Cc1ccc(C(=O)NCCC#N)o1)C(C)(C)CCC2(C)C` [Compound 436]: 58%.
Still for that read-out and setting: the same measure for `Cc1cc2c(cc1Cc1ccc(C(=O)NCCc3cccc(F)c3)o1)C(C)(C)CCC2(C)C` [Compound 437]: 40%; for `Cc1cc2c(cc1Cc1ccc(C(=O)NCCOc3ccccc3)o1)C(C)(C)CCC2(C)C` [Compound 438]: 7%; for `COc1cccc(CNC(=O)c2ccc(Cc3cc4c(cc3C)C(C)(C)CCC4(C)C)o2)c1` [Compound 439]: 23%.
Consider `Cc1ccc(CNC(=O)c2ccc(Cc3cc4c(cc3C)C(C)(C)CCC4(C)C)o2)cc1C` [Compound 440], for which the remaining activity at 1 µM was found to be 22%.
Take `Cc1cc2c(cc1Cc1ccc(C(=O)NCc3cccc(C)c3C)o1)C(C)(C)CCC2(C)C` [Compound 441]: the remaining activity at 1 µM is 17%.
As to `Cc1ccc(CCNC(=O)c2ccc(Cc3cc4c(cc3C)C(C)(C)CCC4(C)C)o2)cc1` [Compound 442], the remaining activity at 1 µM is 50%.
On the same count and under the same terms, the same measure for `Cc1cc2c(cc1Cc1ccc(C(=O)NCc3cccc(F)c3)o1)C(C)(C)CCC2(C)C` [Compound 443]: 19%.
With `Cc1cc2c(cc1Cc1ccc(C(=O)NCC(O)c3ccccc3)o1)C(C)(C)CCC2(C)C` (stereo not shown) [Compound 444], the remaining activity at 1 µM was determined as 32%.
On to `Cc1cc2c(cc1Cc1ccc(C(=O)NCc3ccc(F)cc3F)o1)C(C)(C)CCC2(C)C` [Compound 445], for which the remaining activity at 1 µM stood at 22%.
Same read-out and setting: the value for `Cc1cc2c(cc1Cc1ccc(C(=O)NCCc3ccc(F)cc3)o1)C(C)(C)CCC2(C)C` [Compound 446] was 55%.
On the same count and under the same terms, the value for `Cc1cc2c(cc1Cc1ccc(C(=O)NCc3ccc(N(C)C)cc3)o1)C(C)(C)CCC2(C)C` [Compound 447] was 18%.
For the compound `COc1cc(CNC(=O)c2ccc(Cc3cc4c(cc3C)C(C)(C)CCC4(C)C)o2)ccc1O` [Compound 448], the remaining activity at 1 µM worked out at 46%.
Same read-out and setting: the value for `Cc1cc2c(cc1Cc1ccc(C(=O)NCc3ccccc3Br)o1)C(C)(C)CCC2(C)C` [Compound 449] was 42%.

The experiment is the same for the next values; noted with them: 1 h, substrate remaining; 10 uM compound; closer to zero = closer to 100% inhibition; read-out: S%R 10 uM hGnRHR.
Take `Cc1cc2c(cc1Cc1ccc(C(=O)Nc3cccc4c(=O)[nH][nH]c(=O)c34)o1)C(C)(C)CCC2(C)C` [Compound 387]: the remaining activity at 10 µM is 52%.
Still for that read-out and setting: the same measure for `Cc1cc2c(cc1Cc1ccc(C(=O)Nc3ccc(Br)c4ccccc34)o1)C(C)(C)CCC2(C)C` [Compound 388]: 30%.
Still for that read-out and setting: the same measure for `COc1ccc(NC(=O)c2ccc(Cc3cc4c(cc3C)C(C)(C)CCC4(C)C)o2)c(Oc2ccc(Cl)cc2)n1` [Compound 391]: 48%.
The same measure, in the same setting: the same measure for `CC(=O)c1cccc(NC(=O)c2ccc(Cc3cc4c(cc3C)C(C)(C)CCC4(C)C)o2)c1` [Compound 392]: 0%; for `COC(=O)c1ccc(NC(=O)c2ccc(Cc3cc4c(cc3C)C(C)(C)CCC4(C)C)o2)c(O)c1` [Compound 393]: 44%; for `Cc1cc2c(cc1Cc1ccc(C(=O)Nc3c(C)cccc3C(C)C)o1)C(C)(C)CCC2(C)C` [Compound 394]: 57%.
In the case of `Cc1cc2c(cc1Cc1ccc(C(=O)Nc3c(Cl)cc(Cl)cc3C(F)(F)F)o1)C(C)(C)CCC2(C)C` [Compound 395], the remaining activity at 10 µM stood at 40%.
The same measure, in the same setting: the value for `CC(=O)c1ccc(NC(=O)c2ccc(Cc3cc4c(cc3C)C(C)(C)CCC4(C)C)o2)cc1` [Compound 396] was 55%; that for `Cc1cc2c(cc1Cc1ccc(C(=O)Nc3c(C)cccc3C)o1)C(C)(C)CCC2(C)C` [Compound 397] was 43%.
Still for that read-out and setting: the same measure for `CCc1cccc(C)c1NC(=O)c1ccc(Cc2cc3c(cc2C)C(C)(C)CCC3(C)C)o1` [Compound 399]: 41%.

These data come from patent US7101878B1 (Agouron Pharmaceuticals, Inc., priority 1998, dated 2006).
